Article PMC2984425, “Safety and pharmacokinetics of novel selective vascular endothelial growth factor receptor-2 inhibitor YN968D1 in patients with advanced malignancies” (BMC Cancer, 2010)

Test system: patients with advanced solid tumors
Assay: Treatment-related adverse events graded by NCI-CTC v3.0
Assay type: in vivo, human
Experimental: Medical records and laboratory tests were obtained during screening. Physical examination, routine laboratory evaluations, and performance status were assessed at baseline and at specified time points throughout the trial. AEs and concomitant medications were recorded at the end of each cycle. The safety evaluation period extended through 30 days from the last dose of study drug or through recovery to grade 1 or better from all acute toxicities associated with drug administration. Toxicity was evaluated and graded according to the NCI-CTC for Adverse Events, version 3.0.

## N#CC1(c2ccc(NC(=O)c3cccnc3NCc3ccncc3)cc2)CCCC1 [apatinib]
250 mg cohort
  Anemia grade 1-2, %: 25.0%
  Anemia grade 1-2, No.: 1
  Hyperbilirubinemia grade 3-4, %: 25%
  Hyperbilirubinemia grade 3-4, No.: 1
  Hypertension grade 1-2, %: 50%
  Hypertension grade 1-2, No.: 2
  Infection grade 1-2, %: 25.0%
  Infection grade 1-2, No.: 1
  Proteinuria grade 3-4, %: 25.0%
  Proteinuria grade 3-4, No.: 1
  Thrombocytopenia grade 1-2, %: 25.0%
  Thrombocytopenia grade 1-2, No.: 1
  Transaminase Increased grade 1-2, %: 50.0%
  Transaminase Increased grade 1-2, No.: 2
500 mg cohort
  Anemia grade 1-2, %: 9%
  Anemia grade 1-2, No.: 1
  Anorexia grade 1-2, %: 18.2%
  Anorexia grade 1-2, No.: 2
  Diarrhea grade 1-2, %: 9%
  Diarrhea grade 1-2, No.: 1
  Fatigue grade 1-2, %: 9%
  Fatigue grade 1-2, No.: 1
  Hand-Food Syndrome grade 1-2, %: 36.4%
  Hand-Food Syndrome grade 1-2, No.: 4
  Hand-Food Syndrome grade 3-4, %: 9%
  Hand-Food Syndrome grade 3-4, No.: 1
  Hemorrhage grade 1-2, %: 36.4%
  Hemorrhage grade 1-2, No.: 4
  Hemorrhage grade 3-4, %: 9%
  Hemorrhage grade 3-4, No.: 1
  Hoarseness grade 1-2, %: 9%
  Hoarseness grade 1-2, No.: 1
  Hypertension grade 1-2, %: 63.6%
  Hypertension grade 1-2, No.: 7
  Infection grade 1-2, %: 9%
  Infection grade 1-2, No.: 1
  Mucosal ulcers grade 1-2, %: 18.2%
  Mucosal ulcers grade 1-2, No.: 2
  Neutropenia grade 1-2, %: 18.2%
  Neutropenia grade 1-2, No.: 2
  Neutropenia grade 3-4, %: 18.2%
  Neutropenia grade 3-4, No.: 2
  Pain grade 1-2, %: 36.4%
  Pain grade 1-2, No.: 4
  Pain grade 3-4, %: 18.2%
  Pain grade 3-4, No.: 2
  Proteinuria grade 1-2, %: 36.4%
  Proteinuria grade 1-2, No.: 4
  Proteinuria grade 3-4, %: 9%
  Proteinuria grade 3-4, No.: 1
  Rash grade 1-2, %: 9%
  Rash grade 1-2, No.: 1
  Thrombocytopenia grade 1-2, %: 18.2%
  Thrombocytopenia grade 1-2, No.: 2
  Thrombocytopenia grade 3-4, %: 0%
  Thrombocytopenia grade 3-4, No.: 0
  Transaminase Increased grade 1-2, %: 9%
  Transaminase Increased grade 1-2, No.: 1
  Transaminase Increased grade 3-4, %: 9%
  Transaminase Increased grade 3-4, No.: 1
  Vomiting grade 1-2, %: 0%
  Vomiting grade 1-2, No.: 0
750 mg cohort
  Albinism grade 1-2, %: 6.7%
  Albinism grade 1-2, No.: 1
  Anemia grade 1-2, %: 20%
  Anemia grade 1-2, No.: 3
  Anorexia grade 1-2, %: 20%
  Anorexia grade 1-2, No.: 3
  Diarrhea grade 1-2, %: 20%
  Diarrhea grade 1-2, No.: 3
  Fatigue grade 1-2, %: 26.7%
  Fatigue grade 1-2, No.: 4
  Fatigue grade 3-4, %: 6.7%
  Fatigue grade 3-4, No.: 1
  Hand-Food Syndrome grade 1-2, %: 46.7%
  Hand-Food Syndrome grade 1-2, No.: 7
  Hand-Food Syndrome grade 3-4, %: 13.3%
  Hand-Food Syndrome grade 3-4, No.: 2
  Hemorrhage grade 1-2, %: 33.3%
  Hemorrhage grade 1-2, No.: 5
  Hoarseness grade 1-2, %: 13.3%
  Hoarseness grade 1-2, No.: 2
  Hypertension grade 1-2, %: 60%
  Hypertension grade 1-2, No.: 9
  Hypertension grade 3-4, %: 13.3%
  Hypertension grade 3-4, No.: 2
  Infection grade 1-2, %: 26.7%
  Infection grade 1-2, No.: 4
  Mucosal ulcers grade 1-2, %: 13.3%
  Mucosal ulcers grade 1-2, No.: 2
  Mucosal ulcers grade 3-4, %: 13.3%
  Mucosal ulcers grade 3-4, No.: 2
  Neutropenia grade 1-2, %: 46.7%
  Neutropenia grade 1-2, No.: 7
  Pain grade 1-2, %: 26.7%
  Pain grade 1-2, No.: 4
  Pain grade 3-4, %: 13.3%
  Pain grade 3-4, No.: 2
  Proteinuria grade 1-2, %: 46.67%
  Proteinuria grade 1-2, No.: 7
  Proteinuria grade 3-4, %: 20%
  Proteinuria grade 3-4, No.: 3
  Rash grade 1-2, %: 6.7%
  Rash grade 1-2, No.: 1
  Thrombocytopenia grade 1-2, %: 40%
  Thrombocytopenia grade 1-2, No.: 6
  Transaminase Increased grade 1-2, %: 40%
  Transaminase Increased grade 1-2, No.: 6
  Vomiting grade 1-2, %: 26.7%
  Vomiting grade 1-2, No.: 4
850 mg cohort
  Anemia grade 1-2, %: 15.4%
  Anemia grade 1-2, No.: 2
  Anemia grade 3-4, %: 7.7%
  Anemia grade 3-4, No.: 1
  Anorexia grade 1-2, %: 7.7%
  Anorexia grade 1-2, No.: 1
  Diarrhea grade 1-2, %: 15.4%
  Diarrhea grade 1-2, No.: 2
  Dyspnea grade 1-2, %: 7.7%
  Dyspnea grade 1-2, No.: 1
  Fatigue grade 1-2, %: 30.8%
  Fatigue grade 1-2, No.: 4
  Hand-Food Syndrome grade 1-2, %: 30.8%
  Hand-Food Syndrome grade 1-2, No.: 4
  Hand-Food Syndrome grade 3-4, %: 15.4%
  Hand-Food Syndrome grade 3-4, No.: 2
  Hemorrhage grade 1-2, %: 7.7%
  Hemorrhage grade 1-2, No.: 1
  Hoarseness grade 1-2, %: 7.7%
  Hoarseness grade 1-2, No.: 1
  Hyperbilirubinemia grade 1-2, %: 23.1%
  Hyperbilirubinemia grade 1-2, No.: 3
  Hypertension grade 1-2, %: 69.2%
  Hypertension grade 1-2, No.: 9
  Infection grade 1-2, %: 23.1%
  Infection grade 1-2, No.: 3
  Mucosal ulcers grade 1-2, %: 15.4%
  Mucosal ulcers grade 1-2, No.: 2
  Neutropenia grade 1-2, %: 30.8%
  Neutropenia grade 1-2, No.: 4
  Neutropenia grade 3-4, %: 15.4%
  Neutropenia grade 3-4, No.: 2
  Pain grade 1-2, %: 23.1%
  Pain grade 1-2, No.: 3
  Proteinuria grade 1-2, %: 38.5%
  Proteinuria grade 1-2, No.: 5
  Proteinuria grade 3-4, %: 7.7%
  Proteinuria grade 3-4, No.: 1
  Rash grade 1-2, %: 7.7%
  Rash grade 1-2, No.: 1
  Thrombocytopenia grade 1-2, %: 15.4%
  Thrombocytopenia grade 1-2, No.: 2
  Thrombocytopenia grade 3-4, %: 7.7%
  Thrombocytopenia grade 3-4, No.: 1
  Transaminase Increased grade 1-2, %: 23.1%
  Transaminase Increased grade 1-2, No.: 3
  Transaminase Increased grade 3-4, %: 15.4%
  Transaminase Increased grade 3-4, No.: 2
  Vomiting grade 3-4, %: 7.7%
  Vomiting grade 3-4, No.: 1
1000 mg cohort
  Anemia grade 3-4, %: 33.3%
  Anemia grade 3-4, No.: 1
  Anorexia grade 1-2, %: 33.3%
  Anorexia grade 1-2, No.: 1
  Fatigue grade 1-2, %: 33.3%
  Fatigue grade 1-2, No.: 1
  Fatigue grade 3-4, %: 33.3%
  Fatigue grade 3-4, No.: 1
  Hand-Food Syndrome grade 3-4, %: 33.3%
  Hand-Food Syndrome grade 3-4, No.: 1
  Hypertension grade 1-2, %: 66.7%
  Hypertension grade 1-2, No.: 2
  Hypertension grade 3-4, %: 33.3%
  Hypertension grade 3-4, No.: 1
  Infection grade 1-2, %: 33.3%
  Infection grade 1-2, No.: 1
  Mucosal ulcers grade 1-2, %: 66.7%
  Mucosal ulcers grade 1-2, No.: 2
  Neutropenia grade 1-2, %: 100%
  Neutropenia grade 1-2, No.: 3
  Pain grade 1-2, %: 33.3%
  Pain grade 1-2, No.: 1
  Thrombocytopenia grade 1-2, %: 33.3%
  Thrombocytopenia grade 1-2, No.: 1
  Transaminase Increased grade 1-2, %: 33.3%
  Transaminase Increased grade 1-2, No.: 1
  Transaminase Increased grade 3-4, %: 33.3%
  Transaminase Increased grade 3-4, No.: 1
Total, all cohorts
  Albinism grade 1-2, %: 2.2%
  Albinism grade 1-2, No.: 1
  Anemia grade 1-2, %: 15.2%
  Anemia grade 1-2, No.: 7
  Anemia grade 3-4, %: 4.3%
  Anemia grade 3-4, No.: 2
  Anorexia grade 1-2, %: 15.2%
  Anorexia grade 1-2, No.: 7
  Diarrhea grade 1-2, %: 13%
  Diarrhea grade 1-2, No.: 6
  Dyspnea grade 1-2, %: 2.2%
  Dyspnea grade 1-2, No.: 1
  Fatigue grade 1-2, %: 21.7%
  Fatigue grade 1-2, No.: 10
  Fatigue grade 3-4, %: 4.3%
  Fatigue grade 3-4, No.: 2
  Hand-Food Syndrome grade 1-2, %: 32.6%
  Hand-Food Syndrome grade 1-2, No.: 15
  Hand-Food Syndrome grade 3-4, %: 13%
  Hand-Food Syndrome grade 3-4, No.: 6
  Hemorrhage grade 1-2, %: 21.7%
  Hemorrhage grade 1-2, No.: 10
  Hemorrhage grade 3-4, %: 2.2%
  Hemorrhage grade 3-4, No.: 1
  Hoarseness grade 1-2, %: 8.7%
  Hoarseness grade 1-2, No.: 4
  Hyperbilirubinemia grade 1-2, %: 6.5%
  Hyperbilirubinemia grade 1-2, No.: 3
  Hyperbilirubinemia grade 3-4, %: 2.2%
  Hyperbilirubinemia grade 3-4, No.: 1
  Hypertension grade 1-2, %: 63%
  Hypertension grade 1-2, No.: 29
  Hypertension grade 3-4, %: 6.5%
  Hypertension grade 3-4, No.: 3
  Infection grade 1-2, %: 21.7%
  Infection grade 1-2, No.: 10
  Mucosal ulcers grade 1-2, %: 17.4%
  Mucosal ulcers grade 1-2, No.: 8
  Mucosal ulcers grade 3-4, %: 4.3%
  Mucosal ulcers grade 3-4, No.: 2
  Neutropenia grade 1-2, %: 34.8%
  Neutropenia grade 1-2, No.: 16
  Neutropenia grade 3-4, %: 8.7%
  Neutropenia grade 3-4, No.: 4
  Pain grade 1-2, %: 26.1%
  Pain grade 1-2, No.: 12
  Pain grade 3-4, %: 8.7%
  Pain grade 3-4, No.: 4
  Proteinuria grade 1-2, %: 34.8%
  Proteinuria grade 1-2, No.: 16
  Proteinuria grade 3-4, %: 13%
  Proteinuria grade 3-4, No.: 6
  Rash grade 1-2, %: 6.5%
  Rash grade 1-2, No.: 3
  Thrombocytopenia grade 1-2, %: 26.1%
  Thrombocytopenia grade 1-2, No.: 12
  Thrombocytopenia grade 3-4, %: 2.2%
  Thrombocytopenia grade 3-4, No.: 1
  Transaminase Increased grade 1-2, %: 28.3%
  Transaminase Increased grade 1-2, No.: 13
  Transaminase Increased grade 3-4, %: 8.7%
  Transaminase Increased grade 3-4, No.: 4
  Vomiting grade 1-2, %: 8.7%
  Vomiting grade 1-2, No.: 4
  Vomiting grade 3-4, %: 2.2%
  Vomiting grade 3-4, No.: 1
All patients, N = 46
  hypertension, drug-related AE, all grades: 69.5%
  proteinuria, drug-related AE, all grades: 47.8%
All patients, most at tumor sites
  bleeding, patients: 23.9%
In vivo
  patients who developed HFS that progressed to grade 3: About 10%
